Assay results published in US20060122150A1, “Pharmaceutical composition and method for treating a joint-capsule arthropathy” (priority 2004, published 2006).

Tests used:
5LO-1 = target: T1, 5LO-1 (Homo sapiens, UniProt P09917); assay: In vitro efficacy: inhibitor of 5LO-1; assay type: biochemical
T1 sequence (P09917 1-674): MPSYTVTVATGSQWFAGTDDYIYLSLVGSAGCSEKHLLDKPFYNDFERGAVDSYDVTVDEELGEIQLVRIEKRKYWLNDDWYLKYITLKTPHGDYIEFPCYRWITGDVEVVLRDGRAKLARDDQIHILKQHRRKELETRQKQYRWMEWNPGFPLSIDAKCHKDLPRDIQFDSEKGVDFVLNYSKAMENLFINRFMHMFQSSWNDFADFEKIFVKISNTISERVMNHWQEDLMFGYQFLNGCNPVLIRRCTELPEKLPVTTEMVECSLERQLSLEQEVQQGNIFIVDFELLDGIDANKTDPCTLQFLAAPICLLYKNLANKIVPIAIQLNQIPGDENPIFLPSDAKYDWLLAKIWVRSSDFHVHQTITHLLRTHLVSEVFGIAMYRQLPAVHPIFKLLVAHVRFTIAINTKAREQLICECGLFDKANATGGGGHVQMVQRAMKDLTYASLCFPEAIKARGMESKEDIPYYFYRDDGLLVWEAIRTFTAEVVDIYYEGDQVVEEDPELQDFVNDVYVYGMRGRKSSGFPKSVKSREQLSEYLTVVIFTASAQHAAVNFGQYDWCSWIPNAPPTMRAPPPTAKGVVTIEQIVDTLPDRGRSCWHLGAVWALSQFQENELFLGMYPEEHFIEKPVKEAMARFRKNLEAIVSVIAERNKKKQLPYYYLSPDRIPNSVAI

COX-2 = target: T2, COX-2 (Homo sapiens, UniProt P35354); assay: In vitro efficacy: inhibitor of COX-2; assay type: biochemical
T2 sequence (P35354 18-604): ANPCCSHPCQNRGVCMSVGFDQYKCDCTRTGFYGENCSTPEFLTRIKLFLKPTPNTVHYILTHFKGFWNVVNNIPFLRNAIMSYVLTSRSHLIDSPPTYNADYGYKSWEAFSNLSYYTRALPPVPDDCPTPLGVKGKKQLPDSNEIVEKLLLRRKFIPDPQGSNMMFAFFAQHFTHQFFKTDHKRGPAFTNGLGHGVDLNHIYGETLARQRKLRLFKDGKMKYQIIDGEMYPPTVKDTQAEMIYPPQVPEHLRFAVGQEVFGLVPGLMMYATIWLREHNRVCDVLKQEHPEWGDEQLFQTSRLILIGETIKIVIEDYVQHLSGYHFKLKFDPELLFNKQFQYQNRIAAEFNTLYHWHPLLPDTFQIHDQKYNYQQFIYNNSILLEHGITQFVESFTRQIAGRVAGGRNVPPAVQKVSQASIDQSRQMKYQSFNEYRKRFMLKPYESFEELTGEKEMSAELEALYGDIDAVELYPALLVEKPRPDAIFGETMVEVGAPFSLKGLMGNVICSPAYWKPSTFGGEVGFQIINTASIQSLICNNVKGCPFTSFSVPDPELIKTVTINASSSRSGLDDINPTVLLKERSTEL

COX-1 = COX-1 (Homo sapiens, UniProt P23219); assay: In vitro efficacy: inhibitor of COX-1; assay type: biochemical
COX-1, sequence (P23219 24-599): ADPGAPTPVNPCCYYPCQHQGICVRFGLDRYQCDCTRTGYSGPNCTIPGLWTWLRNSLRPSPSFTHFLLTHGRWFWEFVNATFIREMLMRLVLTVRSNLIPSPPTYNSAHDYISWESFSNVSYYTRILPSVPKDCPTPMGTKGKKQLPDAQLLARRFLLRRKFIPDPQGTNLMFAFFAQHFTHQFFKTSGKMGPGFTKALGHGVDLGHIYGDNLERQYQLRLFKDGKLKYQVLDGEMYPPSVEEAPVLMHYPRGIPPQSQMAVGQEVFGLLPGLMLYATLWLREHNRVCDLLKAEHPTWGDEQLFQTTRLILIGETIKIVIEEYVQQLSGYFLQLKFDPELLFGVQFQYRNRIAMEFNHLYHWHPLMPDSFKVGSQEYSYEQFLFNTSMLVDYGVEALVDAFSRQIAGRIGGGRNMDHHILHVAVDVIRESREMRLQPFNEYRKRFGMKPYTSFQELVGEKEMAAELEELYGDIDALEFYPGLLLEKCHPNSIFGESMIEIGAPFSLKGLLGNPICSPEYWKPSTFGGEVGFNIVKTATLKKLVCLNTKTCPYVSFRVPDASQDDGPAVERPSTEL

[1] = test system: Rabbit Anterior Cruciate Ligament Transection (ACLT) Model; assay: Rabbit ACLT osteoarthritis model, NSAID dispersed in HA (Example 4); assay type: in vivo, New Zealand White Rabbits; details: intra-articular 160 μL once per week for 5 weeks
Source text: Osteoarthritis is a degenerative disease that degrades cartilage, resulting in pain, restriction of motion and deformity. In the ACLT model, the appearance of OA can be seen at 6 weeks and is characterized by erosion of cartilage on the trochlear grove and mild to serious cartilage erosion on the femoral condyle. The last symptoms to arise are on the tibial plateau. At 6 weeks, there is some damage visible on the tibial plateau, but the damage may not be great given the length of the study. […] While osteophyte formation is a factor in the analysis, several parameters are observed, wherein each parameter alone is not sufficient to draw a conclusion. Therefore, the composite score provides a more meaningful result for a particular agent tested.
The ACLT model was used to evaluate the ability of a NSAID agent in a pharmaceutical formulation administered directly into the intra-articular capsule of the knee to reduce the incidence of osteoarthritic changes. The NSAIDs formulations prepared in Example 2 were used and injected 6 weeks after animal preparation. A commercially available form of purified HA was used as the vehicle control. The animals (n=7 per group) were dosed (160 μL per injection) once per week for 5 weeks.
Female New Zealand White Rabbits (n=84, Milibrook Breeding Labs, SPF) used in the study underwent ACLT on the right knee.
One week after the last injection (total 12 weeks from time of ACLT), animals were euthanized and gross observations were made on the knee joints. Histological sectioning and staining were performed on the condyles.
The joints were analyzed for disease state in the trochlear groove, the femoral condyles and the tibial plateau. Pathological assessments were performed on the sectioned tissue. Condylar structure, cellularity, presence of GAG (glycosaminoglycans) and presence of cartilage were evaluated.
On the anterior surface of the femur (trochlear groove), the number of osteophytes, the size (diameter) of osteophytes, the presence of trochlear groove thickening and the erosion of cartilage were evaluated grossly.
On the femoral condyles, the erosion of cartilage (% surface area) (both medial and lateral condyle), the erosion of cartilage (depth) and the presence of clefts were evaluated grossly.
On the tibial plateau, observations on the thickening, presence of clefts and erosion were made.
Each parameter was given a score. The combination of all parameters gave a Total Score. A higher score indicates more damage to the joint. The data for un-operated joints (no surgery) has been included as a baseline for a normal joint.

TXB2 = assay: In vitro efficacy: inhibitor of TXB2; assay type: biochemical
LTB4 = assay: In vitro efficacy: inhibitor of LTB4; assay type: biochemical

SMILES | IC50 (5LO-1) | IC50 (COX-2) | IC50 (COX-1) | All Trochlear Groove Effects composite score ([1]; high dose) | Trochlear Groove (Erosion of Cartilage) grade ([1]; high dose) | Medial Femoral Condyle (% Surface Area Erosion) score ([1]; low dose) | All Cartilage Effects composite score ([1]; mid dose) | All Tibial Plateau Effects composite score ([1]; mid dose) | Lateral Femoral Condyle (% Surface Area Erosion) score ([1]; mid dose) | Medial Femoral Condyle (% Surface Area Erosion) score ([1]; mid dose) | Total Score (composite of all scoring criteria) ([1]; mid dose) | All Cartilage Effects composite score ([1]; high dose) | Total Score (composite of all scoring criteria) ([1]; high dose) | further results
Cc1ccc(C(=O)c2ccc(CC(=O)O)n2C)cc1 [Tolmetin] | 30 nM | 50 nM | 3000 nM | lower mean scores than Vehicle and No Injection treated groups | numerically lower than the Vehicle control and No Injection treated groups | average numerical scores less than Vehicle and No Injection treated groups | lower mean scores than the No Injection treated group | lower average scores than the No Injection treated group | average numerical scores less than Vehicle and No Injection treated groups | average numerical scores less than Vehicle and No Injection treated groups | numerically less average scores than the No Injection treated group | – | – | Femoral Condyle (Depth of Erosion) score ([1]; high dose): the same average score as the No Injection group
COc1ccc(-n2nc(CCC(=O)N(C)O)cc2-c2ccc(Cl)cc2)cc1 [Tepoxalin] | 170 nM | 2000 nM | 970 nM | lower mean scores than Vehicle and No Injection treated groups | numerically lower than the Vehicle control and No Injection treated groups | – | lower mean scores than the No Injection treated group | – | average numerical scores less than Vehicle and No Injection treated groups | – | – | lower mean scores than the No Injection treated group | numerically less average scores than the No Injection treated group | IC50 (TXB2): 2 nM; IC50 (LTB4): 40 nM; Medial Femoral Condyle (% Surface Area Erosion) score ([1]; all dose groups): average numerical scores less than Vehicle and No Injection treated groups; Total Score (composite of all scoring criteria) ([1]; low dose): numerically less average scores than the No Injection treated group
CC(C(=O)O)c1ccc(C(=O)c2cccs2)cc1 (stereo not drawn) [Suprofen] | 3000 nM | 1000 nM | 60 nM | – | – | the same average score as No Injection but scored better than Vehicle | lower mean scores than the No Injection treated group | lower average scores than the No Injection treated group | average numerical scores less than Vehicle and No Injection treated groups | average numerical scores less than Vehicle and No Injection treated groups | numerically less average scores than the No Injection treated group | lower mean scores than the No Injection treated group | numerically less average scores than the No Injection treated group | All Trochlear Groove Effects composite score ([1]; all dose groups): lower mean scores than Vehicle and No Injection treated groups; Trochlear Groove (Erosion of Cartilage) grade ([1]; all dose levels): numerically lower than the Vehicle control and No Injection treated groups; Lateral Femoral Condyle (% Surface Area Erosion) score ([1]; high dose): average numerical scores less than Vehicle and No Injection treated groups
